Laboratory results reported in BindingDB's records for doi:10.1016/0014-2999(93)90488-4 (Maryland Psychiatric Research Center, 1993).

Assays:
D(4) dopamine receptor = target: T1, D(4) dopamine receptor (Homo sapiens, UniProt P21917)
T1 sequence (P21917 whole entry): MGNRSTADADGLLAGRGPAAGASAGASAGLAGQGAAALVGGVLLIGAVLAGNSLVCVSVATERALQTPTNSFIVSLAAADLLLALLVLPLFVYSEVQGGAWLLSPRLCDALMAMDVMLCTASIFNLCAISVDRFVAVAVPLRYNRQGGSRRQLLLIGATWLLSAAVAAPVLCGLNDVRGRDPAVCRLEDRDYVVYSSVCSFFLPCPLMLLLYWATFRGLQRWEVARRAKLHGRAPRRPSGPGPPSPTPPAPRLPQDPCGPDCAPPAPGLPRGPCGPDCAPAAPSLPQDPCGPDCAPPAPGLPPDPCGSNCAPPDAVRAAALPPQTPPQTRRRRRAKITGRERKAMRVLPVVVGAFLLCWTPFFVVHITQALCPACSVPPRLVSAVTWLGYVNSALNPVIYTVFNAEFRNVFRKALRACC

D(2) dopamine receptor = D(2) dopamine receptor (Homo sapiens, UniProt P14416)
Chain of D(2) dopamine receptor (P14416 whole entry): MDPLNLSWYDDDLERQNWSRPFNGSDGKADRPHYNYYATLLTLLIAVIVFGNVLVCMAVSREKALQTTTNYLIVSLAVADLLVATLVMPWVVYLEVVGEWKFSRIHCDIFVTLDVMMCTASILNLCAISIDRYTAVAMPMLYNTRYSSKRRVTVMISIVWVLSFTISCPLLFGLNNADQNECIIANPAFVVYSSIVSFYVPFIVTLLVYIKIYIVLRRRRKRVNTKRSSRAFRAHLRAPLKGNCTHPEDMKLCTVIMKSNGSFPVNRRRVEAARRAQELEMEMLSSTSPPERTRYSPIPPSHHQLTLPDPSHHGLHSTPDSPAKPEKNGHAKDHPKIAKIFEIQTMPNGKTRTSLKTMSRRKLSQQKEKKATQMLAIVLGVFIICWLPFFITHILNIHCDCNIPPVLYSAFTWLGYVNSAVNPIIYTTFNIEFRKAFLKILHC

Row | Compound | Ki (D(4) dopamine receptor) | Ki (D(2) dopamine receptor)
1 | CN1C[C@@H](NC(=O)C(C)(C)C)CC2c3cccc4[nH]c(Cl)c(c34)C[C@H]21 (some centres not stated) [SDZ-208-912] | 3.5 nM | 0.9 nM
2 | CCCN(CCC)C1C=Cc2c(OC)cccc2C1C (configuration not stated) [CAS_5311190] | 66.5 nM | 29.4 nM
3 | O=C(O)c1ccccc1C(=O)Nc1cccc2ccccc12 [NPA,(+)] | 120 nM | 291 nM
4 | CC1CCN(CCCC(=O)c2ccc(F)cc2)CC1 [CAS_3575-80-2] | 139 nM | 
5 | CCCN[C@@H]1CCc2c(OC)cccc2[C@@H]1C | 132 nM | 120 nM
6 | CN1CCN(C2=Nc3ccccc3Oc3ccc(Cl)cc32)CC1 [13-chloro-10-(4-methylpiperazin-1-yl)-2-oxa-9-azatricyclo[9.4.0.0^{3,8}]pentadeca-1(11),3,5,7,9,12,14-heptaene] | 29 nM | 
7 | CSc1ccc2c(c1)N(CC[C@@H]1CCCCN1C)c1ccccc1S2 [10-[2-(1-Methyl-piperidin-2-yl)-ethyl]-2-methylsulfanyl-10H-phenothiazine (thioridazine)] | 22.9 nM | 
8 | CN1CCN(CCCN2c3ccccc3Sc3ccc(C(F)(F)F)cc32)CC1 |  | 1.1 nM
9 | CCN1CCC[C@H]1CNC(=O)c1c(O)c(Cl)cc(Cl)c1OC [3,5-Dichloro-N-(1-ethyl-pyrrolidin-2-ylmethyl)-2-hydroxy-6-methoxy-benzamide (raclopride)] | 1340 nM | 
10 | CCN(CC)C(=O)N[C@H]1C[C@@H]2c3cccc4[nH]cc(c34)C[C@H]2N(C)C1 | 5.2 nM | 0.7 nM
11 | CCCN1CCCC(c2cccc(O)c2)C1 (configuration not stated) [CAS_85976-54-1] | 546 nM | 
12 | CCCOc1ccc2nc(NC(=O)OC)[nH]c2c1 [SMR000058208] | 152 nM | 
